Assay results as given in patent publication US20050209157A1, “Short bioactive peptides and methods for their use” (priority 2001, published 2005).
Like-named read-outs stand apart in the source and are kept apart here. No end group written: not given here.

Experiments:
cancer cell lines = test: Anti-cancer assays, MTT, summary over the cancer cell lines; type: cell-based; conditions: X = preferred
in vitro [1] = type: cell-based, human; conditions: human, human red blood cells
in vitro [2] = conditions: human, WI38 normal lung fibroblast cells
Procedure: (§3) Viability of cells is determined by the dye response. In the following procedure, approximately 1.5×10^4 cells per well were added and viability was determined with the cells in a semi-confluent state. The assay was performed in a 96-well microtiter plate. After addition of peptide, the plate was set for 24 hours. MTT (5 mg/ml in phenol red-free RPMI-1640, 20 μl) was added to each well including positive control wells untreated with peptide. The plate was incubated at 37° C. for 4 hours. The liquid contents of each well was removed, and isopropanol with 0.1 M HCl (100 μl) was added to each well. The plate was sealed with parafilm to prevent evaporation of the isopropanol. The plate is allowed to rest for 5-10 minutes in order to solubilize the precipitate. Purified water (100 μl) was added to each well. Absorbance was determined with an ELISA Reader instrument. Color intensity at 540 nm is proportional to viability of cells.
(§4) WI38 (ATCC No. CCL75) is a normal fibroblast line of lung diploid cells, MCF7 (ATCC No. HTB22) is a breast adenocarcinoma tumor cell line, SW480 (ATCC No. CCL228) is a colon adenocarcinoma tumor cell line, BMKC is a cloned melanoma line derived from Bowes melanoma line HMCB (ATCC No. CRL9607), H1299 (ATCC No. CRL5803) is a lung large cell carcinoma tumor line, HeLaS3 (ATCC No. CCL2.2) is a cervical epitheleal carcinoma tumor cell line, and PC3 (ATCC No. CRL1435) is a prostate adenocarcinoma tumor cell line.

[3] = test system: Escherichia coli ATCC 25922; test: Antimicrobial assay I, modified protocol (tryptic soy broth), MBC; conditions: minimum bactericidal concentration, Table 4
[4] = test system: Pseudomonas aeruginosa ATCC 27853; test: as above; conditions: minimum bactericidal concentration, Table 4
Procedure: The preparation of all media, stock solutions, and dilutions took place in a laminar flow hood to prevent contamination. Bacterial cells were freshly grown on antibiotic medium 2 agar slants (pH 7.0 at 25° C.). Bacteria were suspended and diluted in antibiotic medium 3 to about 10^4 cfu/ml and used as the inoculum. Sample solutions (100 μl/well) were added to plates according to the plate layout. Inoculum (100 μl/well) was added to achieve a final concentration of 5×10^3 cfu/ml. Negative controls received 100 μl saline and 100 μl growth medium. Positive controls received 100 μl saline and 100 μl inoculum. Bacterial plates were incubated at 37° C. for 24 hours.
However, the data for Table 4 were obtained with a modified protocol wherein the medium was tryptic soy broth, inocolum strength was approximately 10^4 CFU per ml, and values determined were minimum bactericidal concentrations (MBC) or minimum fungicidal concentrations (MFC).
MBC or MFC values are in μg/mL. E. coli is Escherichia coli ATCC accession number 25922; P. aerug is Pseudomonas aeruginosa ATCC accession number 27853, S. aur. is Stapholococcus aureus ATCC accession number 25923; Candida is Candida albicans ATCC accession number 10231.

[5] = test system: Stapholococcus aureus ATCC 25923; test: as above; conditions: minimum bactericidal concentration, Table 4
[6] = test system: Candida albicans ATCC 10231; test: Antimicrobial assay I, modified protocol (tryptic soy broth), MFC; conditions: minimum fungicidal concentration, Table 4
[7] = test system: Pseudomonas aeruginosa ATCC 9027; test: Antimicrobial assay I, MIC by OD measurement; type: cell-based; conditions: 37° C. for 24 hours, absorbance 620 nm
[8] = test system: Staphylococcus aureus ATCC 6538; test: Antimicrobial assay I, MIC by OD measurement; type: cell-based; conditions: 37° C. for 24 hours, absorbance 620 nm
[9] = test system: yeast (Saccharomyces cerevisiae); test: Antimicrobial assay I, yeast assay in RPMI 1640; type: cell-based; conditions: RPMI 1640 media
BMKC = test: Anti-cancer assay, MTT, LD50; type: cell-based; conditions: BMKC cloned melanoma line, 24 hours with peptide
From the text: (§1) Numbers are LD50 values (μg/mL).

H1299 = test: Anti-cancer assay, MTT, LD50; type: cell-based; conditions: 24 hours with peptide, lung large cell carcinoma
From the text: as §1

HeLaS3 = test: Anti-cancer assay, MTT, LD50; type: cell-based; conditions: 24 hours with peptide, cervical carcinoma
From the text: as §1

MCF7 = test: Anti-cancer assay, MTT, LD50; type: cell-based; conditions: MCF7 breast adenocarcinoma line, MTT, 24 hours with peptide
From the text: as §1

PC3 = test: Anti-cancer assay, MTT, LD50; type: cell-based; conditions: 24 hours with peptide, prostate adenocarcinoma
From the text: as §1

SW480 = test: Anti-cancer assay, MTT, LD50; type: cell-based; conditions: SW480 colon adenocarcinoma line, 24 hours with peptide
From the text: as §1

P. aeruginosa H374 = type: cell-based, Pseudomonas aeruginosa; conditions: for FIC Index: 0.5 or less = synergy
Method in brief: (§2)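 FIC index, computed as 0.25 plus the ratio of combination to single-agent antibiotic MIC, defines synergy when 0.5 or below. Peptide fixed at one quarter MIC while chloramphenicol or nalidixic acid was serially diluted two-fold; antibiotic-alone MICs served as baselines.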

P. aeruginosa H774 = type: cell-based, Pseudomonas aeruginosa; conditions: P. aeruginosa H744; nalidixic acid + peptide at ¼ MIC; 0.5 or less = synergy
Method in brief: as §2

P. aeruginosa = type: cell-based, Pseudomonas aeruginosa; conditions: P. aeruginosa H744; MIC of nalidixic acid with peptide at ¼ MIC
Method in brief: as §2

[10] = test system: hairless rat skin burn wound; test: In vivo wound healing, TCA chemically induced skin burn wound; conditions: rat model, TCA burn treated by peptide
From the text: The hairless rat was chosen as a suitable test model. Female hairless rats of 100 to 150 grams weight and 8 to 12 weeks age were used in the study.
As an alternative, 70% trichloroacetic (TCA) dissolved in 70% ethanol was employed to induce the dermal erosion patches. […] As the chemical burn agent, the TCA treatment inflicted on the rats far less trauma and mortality than occurred with the Phenol model.
The experimental Protocol procedure steps were as follows: • 1. The animal was anesthetized (40 mg/kg Phenobarbital). • 2. Color photographs of the animal's back (with six separate peels) were taken before each treatment and daily thereafter. • 3. Rat skin surface was prepared by wiping with 70% ethanol. Filter paper discs (1.1 cm diameter) were soaked in 70% TCA/ethanol. • 4. The discs were placed on the back of the hairless rat for 30 minutes [6 disks providing for 2 control (no peptide treatment) disks and 4 disks for peels to receive peptide treatment.] • 5. After a 30 minute burn the discs were removed. Twenty four hours later, different peptide solutions (1500 ppm in saline) were applied to four peels, and saline was applied to the two control peels. • 6. Peptide solutions (and saline for the controls) were applied to the six wounds with a soft brush each day thereafter. • 7. It took approximately one month for the wounds to heal (complete skin closure with stabilized epidermis), after which the animal was sacrificed. • 8. The treated skin was harvested, section stained with trichrome, and mounted on slides.
The percentage of wound closure for each peel (six sites) was measured each day until the animal was sacrificed. The percentage closure was determined by measuring on the animal photographs the area of the remaining scab relative to the area of the initial scar after the burn. These measurements were made by digitizing and analyzing the peels using the Sigma Plot ProScan 4 program.
This provided a measure of the post-TCA burn treatment of the inflammatory response in each peel site.
The extent of epidermal thickening (hyperkeratosis) at each site was also determined by measurement with the Sigma Plot program applied to the stained section slides of the various wound areas and the normal untreated skin (control) surrounding the peels. At magnifications of 100× to 320×, the microphotographs of the color slides provided a powerful tool for such quantification of the extent of hyperkeratosis evident in each peel.
Treatment of the section slides with selective stains produced identifiable evidence of the presence of both leukocyte and fibroblast cells in the wound areas. This was also quantified by the Sigma Plot program.
The above described animal model and protocols were employed in the testing of approximately 20 of the peptides listed in Table 48 (and other peptides for comparison) as preferred FLAK peptides for wound healing.

WI38 = conditions: MTT, 24 hours with peptide; normal fibroblast line
Procedure: as §3, §4

[11] = pH 7, Table 26, valine substitution, read-out: Hemolysis RBC LD50
[12] = WI-38 LD50, Table 26, valine substitution

VAKALKALLKALKAL-NH2 [compound 501]
Anti-cancer (preferred peptide) (cancer cell lines): X (Preferred anticancer peptides can be selected as having LD50 values of less than or equal to about 25 μg/ml) | HC50 at 1 h (in vitro [1]; [11]): 15 µg/mL | CC50 at 24 h (in vitro [2]; [12]): 26 µg/mL

FAKKLAKLALKLAKL-NH2 [compound 44]
Anti-cancer (preferred peptide) (cancer cell lines): X (Preferred anticancer peptides can be selected as having LD50 values of less than or equal to about 25 μg/ml) | MBC E. coli A.25922 [3]: 10 µg/mL | MBC P. aerug A.27853 [4]: 55 µg/mL | MBC S. aur A.25923 [5]: 30 µg/mL | MFC Candida A.10231 [6]: >50 µg/mL

FAKKLAKLAKKLLAL-NH2 [compound 38]
Anti-cancer (preferred peptide) (cancer cell lines): X (Preferred anticancer peptides can be selected as having LD50 values of less than or equal to about 25 μg/ml) | HC50 at 1 h (in vitro [1]; [11]): 350 µg/mL | CC50 at 24 h (in vitro [2]; [12]): 100 µg/mL | MBC E. coli A.25922 [3]: 15 µg/mL | MBC P. aerug A.27853 [4]: 30 µg/mL | MBC S. aur A.25923 [5]: 15 µg/mL

FAKLLALALKLKL-NH2 [compound 94]
Anti-cancer (preferred peptide) (cancer cell lines): X (Preferred anticancer peptides can be selected as having LD50 values of less than or equal to about 25 μg/ml) | MBC E. coli A.25922 [3]: >50 µg/mL | MBC P. aerug A.27853 [4]: >50 µg/mL | MBC S. aur A.25923 [5]: >50 µg/mL | MFC Candida A.10231 [6]: >50 µg/mL

FAKKLAKKLAKLL-NH2 [compound 75]
Anti-cancer (preferred peptide) (cancer cell lines): X (Preferred anticancer peptides can be selected as having LD50 values of less than or equal to about 25 μg/ml) | MBC E. coli A.25922 [3]: 40 µg/mL | MBC P. aerug A.27853 [4]: 30 µg/mL | MBC S. aur A.25923 [5]: >55 µg/mL | MFC Candida A.10231 [6]: 30 µg/mL

CC[C@H](C)[C@H](N)C(=O)N[C@@H](CC(C)C)C(=O)N1CCC[C@H]1C(=O)N[C@@H](Cc1c[nH]c2ccccc12)C(=O)N[C@@H](CCCCN)C(=O)N[C@@H](Cc1c[nH]c2ccccc12)C(=O)N1CCC[C@H]1C(=O)N[C@@H](Cc1c[nH]c2ccccc12)C(=O)N[C@@H](Cc1c[nH]c2ccccc12)C(=O)N1CCC[C@H]1C(=O)N[C@@H](Cc1c[nH]c2ccccc12)C(=O)N[C@@H](CCCNC(=N)N)C(=O)N[C@@H](CCCNC(=N)N)C(=O)O [compound 91]
Anti-cancer (preferred peptide) (cancer cell lines): X (Preferred anticancer peptides can be selected as having LD50 values of less than or equal to about 25 μg/ml)

FAKKALKALKKL-NH2 [compound 47]
Anti-cancer (preferred peptide) (cancer cell lines): X (Preferred anticancer peptides can be selected as having LD50 values of less than or equal to about 25 μg/ml) | MBC E. coli A.25922 [3]: >50 µg/mL | MBC P. aerug A.27853 [4]: >50 µg/mL | MBC S. aur A.25923 [5]: >50 µg/mL | MFC Candida A.10231 [6]: >50 µg/mL

KWKLFKKALKKLKKALKKAL-NH2 [compound 104]
Anti-cancer (preferred peptide) (cancer cell lines): X (Preferred anticancer peptides can be selected as having LD50 values of less than or equal to about 25 μg/ml)

KWKLFKKKTKLFKKFAKKLAKKL-OH [compound 81]
Anti-cancer (preferred peptide) (cancer cell lines): X (Preferred anticancer peptides can be selected as having LD50 values of less than or equal to about 25 μg/ml)

FALAAKALKKLAKKLKKLAKKAL-NH2 [compound 23]
Anti-cancer (preferred peptide) (cancer cell lines): X (Preferred anticancer peptides can be selected as having LD50 values of less than or equal to about 25 μg/ml) | MBC E. coli A.25922 [3]: 15 µg/mL | MBC P. aerug A.27853 [4]: 25 µg/mL | MBC S. aur A.25923 [5]: 30 µg/mL | MFC Candida A.10231 [6]: >50 µg/mL

VAKLLAKALKKLL-NH2 [compound 506]
Anti-cancer (preferred peptide) (cancer cell lines): X (Preferred anticancer peptides can be selected as having LD50 values of less than or equal to about 25 μg/ml) | HC50 at 1 h (in vitro [1]; [11]): 120 µg/mL | CC50 at 24 h (in vitro [2]; [12]): 75 µg/mL

FAKLLAKALKKAL-NH2 [P102, FAKLLAKALKKAL-NH2]
paerug9027 (MIC) [7]: 10 µg/mL | staph6538 (MIC) [8]: 5 µg/mL | yeast (MIC or MFC) [9]: 50 µg/mL | LD50 BMKC (BMKC): 60 µg/mL | H1299 LD50 (H1299): 27 µg/mL | HeLaS3 LD50 (HeLaS3): 43 µg/mL | LD50 MCF7 (MCF7): 60 µg/mL | PC3 LD50 (PC3): 66 µg/mL | LD50 SW480 (SW480): 57 µg/mL | HC50 at 1 h (in vitro [1]; pH 7, hemolytic assay, concentration at 50% hemolysis, 1 hour at 37° C., read-out: LD50): 500 µg/mL | MIC Cm-comb. (P. aeruginosa H374; MIC of chloramphenicol with peptide at ¼ MIC): 16 µg/mL | MIC Nal-comb. (P. aeruginosa H374; MIC of nalidixic acid with peptide at ¼ MIC): 5000 µg/mL | FIC Index (P. aeruginosa H374; chloramphenicol + peptide at ¼ MIC): 1.25 | FIC Index (P. aeruginosa H374; nalidixic acid + peptide at ¼ MIC, FIC=0.25+MIC comb/MIC alone): 1.25 | FIC Index (P. aeruginosa H774): 1.25 | MIC Nal-comb. (P. aeruginosa): 624 µg/mL | Epidermal thickening [10]: 50 % of control (TCA only) | Fibroblast cells in test area [10]: 220 % of normal skin | Inflammatory response area [10]: 27 % of healed scar | Leukocyte cells in test area [10]: 370 % of normal skin | Wound closure ([10]; 26 days): 96.7 % of initial wound | WI38 LD50 (WI38): 73 µg/mL | CC50 at 24 h (in vitro [2]; LD50 WI38, WI38 normal lung fibroblast line, MTT, 24 hours with peptide): 73 µg/mL

FAKFLAKFLKKAL-NH2 [compound 111]
Anti-cancer (preferred peptide) (cancer cell lines): X (Preferred anticancer peptides can be selected as having LD50 values of less than or equal to about 25 μg/ml) | HC50 at 1 h (in vitro [1]; [11]): 5 µg/mL | CC50 at 24 h (in vitro [2]; [12]): 25 µg/mL | MBC E. coli A.25922 [3]: 30 µg/mL | MBC S. aur A.25923 [5]: 40 µg/mL | MFC Candida A.10231 [6]: INACT
